Assay results: patent US6423753B1, “Use of colchinol derivatives as vascular damaging agents” (priority 1997, dated 2002)
Like-named read-outs stand apart in the source and are kept apart here.

How the values were obtained:
CaNT tumour = conditions: for % decrease in vascular volume: administered at 50 mg/kg, fluorescent dye technique; for MED mg/Kg body weight: minimum effective dose by the fluorescent dye technique; for MED (mg/kg body weight): other tubulin-binding agents, by fluorescent dye technique; for vascular-damaging effects: at Maximum Tolerated Dose (30 mg/kg), 30 mg/kg
[1] = Maximum tolerated dose (no deaths in three animals); type: in vivo; conditions: for MTD mg/Kg body weight: maximum tolerated dose, no deaths in three animals; for MTD: mouse, in vivo, other tubulin-binding agents, read-out: MTD (mg/kg body weight)
From the text: The phosphate compound was compared with the parent N-acetylcolchinol for the maximum tolerated dose (MTD) (no deaths in three animals), minimum effective dose (MED) measured by the fluorescent dye technique already described and the therapeutic window (MTD/MED).

[2] = tested on: Subcutaneous CaNT tumours; assay: Activity against tumour vasculature measured by radioactive tracer (86RbCl extraction, relative blood flow); type: in vivo, mice; conditions: dose of 125 mg/kg intraperitoneally
Experimental: Activity Against Tumour Vasculature Measured by Radioactive Tracer.
Subcutaneous CaNT tumours were initiated by injecting 0.05 ml of a crude tumour cell suspension, approximately 10^6 cells, under the skin overlying the rear dorsum of 12-16 week-old mice. The animals were selected for treatment after approximately 3-4 weeks, when their tumours reached a geometric mean diameter of 5.5-6.5 mm. Compounds were dissolved in sterile saline and injected intraperitoneally in a volume of 0.1 ml per 10 g body weight. Tumour perfusion was measured 6 hours after intraperitoneal administration in tumour, kidney, liver, skin muscle, gut and brain by the ^86RbCI extraction technique (Sapirstein, Amer J Physiol, 193, 161-168, 1958). Tissue radioactivity measured 1 minute after an intravenous injection of ^86RbCI was used to calculate relative blood flow as a proportion of cardiac output (Hill and Denekamp, Brit J Radiol, 55, 905-913, 1982). Five animals were used in control and treated groups. Results were expressed as a percentage of the blood flow in the corresponding tissues in vehicle treated animals.

[3] = compared with parent N-acetylcolchinol

For COc1cc2c(c(OC)c1OC)-c1ccc(O)cc1C(NS(=O)(=O)N(C)C)CC2 (stereo not drawn) [Example 6, N-Dimethylsulphamoylcolchinol], the “% decrease in vascular volume” value (CaNT tumour) was 30%.

With COc1cc2c(c(OC)c1OC)-c1ccc(O)cc1C(NC(=O)Nc1ccccc1)CC2 (stereo not drawn) [Example 4, N-(Phenylcarbamoyl) colchinol] the “% decrease in vascular volume” value (CaNT tumour) was 37%.

For COc1cc2c(c(OC)c1OC)-c1ccc(O)cc1[C@@H](NC(C)=O)CC2 [N-acetylcolchinol, reference compound], the “MTD mg/Kg body weight” value [1] was 125 mg/Kg body weight, the “% decrease in vascular volume” value (CaNT tumour) was 78% and the “MED mg/Kg body weight” value (CaNT tumour) was 30 mg/Kg body weight.

With COc1cc2c(c(OC)c1OC)-c1ccc(OP(=O)(O)O)cc1C(NC(C)=O)CC2 (stereo not drawn) [Example 1, N-Acetylcolchinol-O-phosphate] the “MTD mg/Kg body weight” value [1] was 750 mg/Kg body weight, the “decrease in tumour blood flow” value ([2]; measured 6 hours after administration, relative to vehicle treated animals) was 65% and the “reduction in blood flow in skin, muscle, liver, kidney, gut or heart” value ([2]; normal tissues) was “no significant reduction”. The solubility [3] was “greater solubility”, the “% decrease in vascular volume” value (CaNT tumour) was 89% and the “MED mg/Kg body weight” value (CaNT tumour) was 50 mg/Kg body weight.

In the case of COc1cc2c(c(OC)c1OC)-c1ccc(O)cc1C(NS(C)(=O)=O)CC2 (stereo not drawn) [Example 5, N-Mesylcolchinol], the “% decrease in vascular volume” value (CaNT tumour) is reported as 38%.

With COc1cc2c(c(OC)c1OC)-c1cc([N+](=O)[O-])c(O)cc1C(NC(C)=O)CC2 (stereo not drawn) [Example 10, N-Acetyl-10-nitrocolchinol] the “% decrease in vascular volume” value (CaNT tumour) was 28%.

In the case of COC(=O)COc1ccc2c(c1)C(NC(C)=O)CCc1cc(OC)c(OC)c(OC)c1-2 (stereo not drawn) [Example 7, N-Acetyl-O-methoxycarbonylmethylcolchinol], the “% decrease in vascular volume” value (CaNT tumour) is reported as 12%.

In the case of COc1cc2c(c(OC)c1OC)-c1ccc(OC3CCCC3)cc1C(NC(C)=O)CC2 (stereo not drawn) [Example 9, N-Acetyl-O-cyclopentylcolchinol], the “% decrease in vascular volume” value (CaNT tumour) is reported as 59%.

In the case of COc1cc2c(c(OC)c1OC)-c1ccc(OCC(=O)O)cc1C(NC(C)=O)CC2 (stereo not drawn) [Example 8, N-Acetyl-O-carboxymethylcolchinol], the “% decrease in vascular volume” value (CaNT tumour) is reported as 49%.

With COc1cc2c(c(OC)c1OC)-c1ccc(OC)c(=O)cc1[C@@H](NC(C)=O)CC2 [Colchicine, reference compound] the MTD [1] was 5 mg/kg and the “MED (mg/kg body weight)” value (CaNT tumour) was 2.5 mg/kg body weight.

In the case of CCNC1CCc2cc(OC)c(OC)c(OC)c2-c2ccc(O)cc21 (stereo not drawn) [Example 2, N-Ethylcolchinol], the “% decrease in vascular volume” value (CaNT tumour) is reported as 38%.

With CC(=O)O[C@@]12CO[C@@H]1C[C@H](O)[C@@]1(C)C(=O)[C@H](O)C3=C(C)[C@@H](OC(=O)[C@H](O)[C@@H](NC(=O)OC(C)(C)C)c4ccccc4)C[C@@](O)([C@@H](OC(=O)c4ccccc4)[C@H]21)C3(C)C [Docetaxel, reference compound] the MTD [1] was 30 mg/kg, the vascular-damaging effects (CaNT tumour) was “No effect” and the vascular-damaging effects (CaNT tumour; listed as docetaxel) was “no vascular-damaging effects”. For the same compound, the “MED (mg/kg body weight)” value (CaNT tumour) was greater than 30 mg/kg body weight.

With COc1cc2c(c(OC)c1OC)-c1ccc(O)cc1C(NC(=O)OCc1ccccc1)CC2 (stereo not drawn) [Example 3, N-Benzyloxvcarbonylcolchinol] the “% decrease in vascular volume” value (CaNT tumour) was 43%.
